Experimental data published in patent publication US7674938B2, “Amino alcohol derivatives, pharmaceutical compositions containing the same, and use thereof” (Kissei Pharmaceutical Co., Ltd., priority 2003, dated 2010).
Read-outs that look alike come from different tables or passages of the source.

Assays:
[1] = target: T1, human β2-adrenoceptor (Homo sapiens, UniProt P07550); assay: Agonistic activities on human β2-adrenoceptor (cAMP in transfected CHO cells); format: cell-based; settings: intrinsic activity: maximum reaction relative to isoproterenol maximum (100%)
T1 construct: expressed in transfected cells; host or cells: CHO cells
T1 sequence (P07550 whole entry): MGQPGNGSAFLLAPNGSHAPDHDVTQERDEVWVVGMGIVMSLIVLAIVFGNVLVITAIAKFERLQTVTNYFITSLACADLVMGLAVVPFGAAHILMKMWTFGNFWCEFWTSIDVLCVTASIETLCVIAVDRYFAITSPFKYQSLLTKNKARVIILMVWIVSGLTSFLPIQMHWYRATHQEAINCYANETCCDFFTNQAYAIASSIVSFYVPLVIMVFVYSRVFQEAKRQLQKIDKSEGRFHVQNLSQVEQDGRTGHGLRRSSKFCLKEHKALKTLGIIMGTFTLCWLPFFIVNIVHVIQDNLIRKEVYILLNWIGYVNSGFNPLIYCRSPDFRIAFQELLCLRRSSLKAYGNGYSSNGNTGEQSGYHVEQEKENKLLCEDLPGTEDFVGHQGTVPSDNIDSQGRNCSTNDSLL
Excerpt: (§1) 2. Measurement of Agonistic Activities on Human β1- and β2-adrenoceptors
(2) Human β2-adrenoceptor
The primer which added a restriction enzyme recognition region to 5′ end was designed on the basis of the base information that is registered with GenBank/EMBL data base as Accession No. M15169, and the clone was obtained by performance of PCR using human bladder origin cDNA as a template. The clone was inserted in top GEM-T vector and was amplified in Escherichia coli bacteria as a plasmid, and it was purified and the sequence of full length and around of insertion sequence determined by means of 310 Genetic Analyzer (ABI).
(2) Preparation of Human β2-adrenoceptor Expressed Cells
(§2) The plasmid (80 ng) for expression obtained in the previous section was transfected into […] suspended in DMEM containing 10% fetal bovine serum by means of Lipofectoamine2000. These cells were dispensed in 96 well plate by 5×10^4 cells/100 μL per well and were cultured under an atmosphere of 5% CO2 at 37° C. for 24 hours, and were used for the assay.
(§3) 3) Measurement of Agonistic Activities on Human β1- and β2-adrenoceptors
(§4) Test compounds were dissolved in 50% dimethyl sulfoxide to make a 10^−2 M solution. Then, a series of 1:10 dilutions containing a maximal dose of […] were prepared using D-PBS (−). The series were used for a testing sample to measure activity. The culture medium of CHO cells of previous section was removed and washed twice with 200 μL D-PBS (−) per well. After that, 50 μL of 3-isobutyl-1-methylxanthine (SIGMA, 1 mM) was added and leaved at rest for 5 minutes, and 50 μL of testing sample were added in them and they were incubated under an atomosphere of 5% CO2 at 37° C. for 30 minutes. cAMP concentrations accumulated in cells were reacted in cAMP-Screen and were detected by Microplate LuminometerTR717.

[2] = target: T2, β1-adrenoceptor (Rattus norvegicus, UniProt P18090); assay: β1-adrenoceptor stimulation in isolated tissue: heart rate increment of rat atrium (Magnus method); parameters: species or system SD rat; settings: read-out: β1 receptor EC50
T2 construct: The atrium of male SD rat (body weight 250-400 g) was isolated; from tissue; host or cells: SD rat atrium
T2 sequence (P18090 whole entry): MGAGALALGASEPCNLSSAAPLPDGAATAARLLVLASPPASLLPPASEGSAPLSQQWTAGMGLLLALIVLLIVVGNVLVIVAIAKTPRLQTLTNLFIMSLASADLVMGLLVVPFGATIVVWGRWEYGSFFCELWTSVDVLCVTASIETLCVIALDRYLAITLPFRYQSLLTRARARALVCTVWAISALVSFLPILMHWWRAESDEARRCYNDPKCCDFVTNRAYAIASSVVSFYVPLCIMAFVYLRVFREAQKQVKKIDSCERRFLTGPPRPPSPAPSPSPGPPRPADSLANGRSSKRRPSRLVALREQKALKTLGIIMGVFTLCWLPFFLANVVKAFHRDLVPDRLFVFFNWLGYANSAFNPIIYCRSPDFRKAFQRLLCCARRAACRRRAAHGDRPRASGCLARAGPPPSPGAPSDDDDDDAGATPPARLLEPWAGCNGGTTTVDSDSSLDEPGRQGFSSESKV
Protocol: 2) Measurement of β1-adrenoceptor Stimulation
The atrium of male SD rat (body weight 250-400 g) was isolated and the experiment was conducted according to a Magnus method. The preparation was suspended in a Krebs-Henseleit solution maintained at 37° C. and gassed with a mixed gas of 95% O2 and 5% CO2 and stretched at a tension of 0.5 g. The myocardial contractility was outputted through an isometric force transducer and recorded on an oscillograph through a tachometer. The test compound was added cumulatively into a Magunus bath.

[3] = target: T3, human β3-adrenoceptor (Homo sapiens, UniProt P13945); assay: Agonistic activities on human β3-adrenoceptor (cAMP accumulation in SK-N-MC cells); format: cell-based; settings: for β3 receptor I.A.: intrinsic activity: maximum reaction relative to isoproterenol maximum (100%); for EC50: read-out: β3 receptor EC50
T3 construct: SK-N-MC cells (American Type Culture Collection, 1×10^5 cell/mL) were put in 96 well plates; host or cells: SK-N-MC cells
T3 sequence (P13945 whole entry): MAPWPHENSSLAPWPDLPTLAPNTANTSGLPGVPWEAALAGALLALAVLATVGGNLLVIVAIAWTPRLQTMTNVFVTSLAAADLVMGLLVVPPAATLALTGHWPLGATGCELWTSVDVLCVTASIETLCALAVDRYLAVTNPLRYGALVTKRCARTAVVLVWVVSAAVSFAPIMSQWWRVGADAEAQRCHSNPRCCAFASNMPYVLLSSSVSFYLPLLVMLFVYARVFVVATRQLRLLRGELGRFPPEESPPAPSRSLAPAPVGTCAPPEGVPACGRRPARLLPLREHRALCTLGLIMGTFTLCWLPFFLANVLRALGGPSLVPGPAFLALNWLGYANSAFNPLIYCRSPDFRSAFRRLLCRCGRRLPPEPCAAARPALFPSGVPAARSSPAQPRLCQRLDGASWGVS
Protocol: 1. Measurement of Agonistic Activities on Human β3-adrenoceptor
Test compounds were dissolved in 50% dimethyl sulfoxide to make a 10^−2 M solution. Then, a series of 1:10 dilutions containing a maximal dose of 1×10^−4 M were prepared using D-PBS (−) (Gibco-BRL: LIFE TECHNOLOGIES). The series were used for a testing sample to measure activity. SK-N-MC cells (American Type Culture Collection, 1×10^5 cell/mL) were put in 96 well plates by 100 μL and were cultured for about 24 hours. […] After that, 20 μL of 3-isobutyl-1-methylxanthine (SIGMA, 1×10^−2 mol/L D-PBS (−) solution) and 20 μL of testing sample were added in them and they were incubated under an atmosphere of 5% CO2 at 37° C. for 30 minutes. cAMP concentrations accumulated in cells were reacted in cAMP-Screen (Applied Biosystems) and were detected by Microplate LuminometerTR717 (Applied Biosystems).

[4] = target: T4, human β1-adrenoceptor (Homo sapiens, UniProt P08588); assay: Agonistic activities on human β1-adrenoceptor (cAMP in transfected CHO cells); format: cell-based; settings: for β1 receptor I.A.: intrinsic activity: maximum reaction relative to isoproterenol maximum (100%)
T4 construct: Both ends of a domain including full length of human β1-adrenoceptor were amplified; expressed in transfected cells; host or cells: CHO cells
T4 sequence (P08588 whole entry): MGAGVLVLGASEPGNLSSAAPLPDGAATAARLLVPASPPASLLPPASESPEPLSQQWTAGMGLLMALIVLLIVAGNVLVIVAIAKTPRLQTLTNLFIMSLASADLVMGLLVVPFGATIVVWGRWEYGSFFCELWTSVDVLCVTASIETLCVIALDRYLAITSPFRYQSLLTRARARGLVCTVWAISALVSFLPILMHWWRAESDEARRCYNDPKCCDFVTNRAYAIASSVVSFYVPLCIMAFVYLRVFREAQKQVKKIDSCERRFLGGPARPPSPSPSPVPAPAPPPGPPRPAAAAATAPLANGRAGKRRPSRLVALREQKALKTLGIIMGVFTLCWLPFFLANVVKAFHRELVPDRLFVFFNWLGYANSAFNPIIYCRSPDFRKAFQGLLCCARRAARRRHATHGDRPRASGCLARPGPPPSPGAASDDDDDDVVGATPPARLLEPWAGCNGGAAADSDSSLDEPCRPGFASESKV
Excerpt: as §1
(1) Human β1-adrenoceptor
Both ends of a domain including full length of human β1-adrenoceptor were amplified on the basis of DNA base information that is registered with GenBank/EMBL data base as Accession No. J03019. DNA fragment which was amplified was inserted into a vector for cloning and amplified in Escherichia coli bacteria. The plasmid which was cloned was inserted into a vector pCI-neo (Promega) for protein expression and plasmid DNA was extracted and purified, then it was used for a preparation of the following expression cells.
(1) Preparation of Human β1-adrenoceptor Expressed Cells
as §2, with “(320” for “(80”, “expression which was” for “expression”, “DMEM (Gibco-BRL: LIFE TECHNOLOGIES)” for “DMEM”, “serum (Sanko Junyaku)” for “serum”, “Lipofectoamine2000 (Invitrogen).” for “Lipofectoamine2000.”
as §3, §4

[5] = tested on: ddY mice adipocytes; assay: Lipolysis in ddY mice adipocytes (free fatty acid release); format: cell-based; settings: Mus musculus, Adipocyte, 2 h; read-out: Lipolysis acticity EC50 value
Protocol: Epididymal fat tissue of ddY mice (body weight 35 g) was removed and isolated to cells by collagenase (typeI, 1 mg/ml) in a culture medium (Krebs-Henseleit solution inclusive of 3% BSA, 1.2 mM CaCl2 and 25 mM HEPES but exclusive of NaHCO3; pH7.4) maintained at 37° C. After rinsing the cells in the culture medium, 50,000 cells/well were seeded in a 96-well culture plate and were incubated at 37° C. in the presence of various concentration of test compounds. Two hours later, the concentration of free fatty acid in the culture medium was measured and it was made as an index for lipolysis. The concentration of free fatty acid was measured by means of NEFA C-test wako (WAKO).
(R)-3′-[[2-[[2-(3-chlorophenyl)-2-hydroxyethyl]amino-ethoxy]-[1,1′-biphenyl]-3-carboxylic acid which was described in example 17 on WO99/65877 was also examined as a comparison example.

[6] = target: T5, β2-adrenoceptor (Rattus norvegicus, UniProt P10608); assay: β2-adrenoceptor stimulation in isolated tissue: inhibition of spontaneous contraction of pregnant rat uterus (Magnus method); parameters: species or system SD rat; settings: read-out: β2 receptor EC50
T5 construct: The uterus of pregnant SD rat (Day 21 of gestation) was isolated and longitudinal muscle strip; from tissue; host or cells: pregnant SD rat uterus, longitudinal muscle strip
T5 sequence (P10608 whole entry): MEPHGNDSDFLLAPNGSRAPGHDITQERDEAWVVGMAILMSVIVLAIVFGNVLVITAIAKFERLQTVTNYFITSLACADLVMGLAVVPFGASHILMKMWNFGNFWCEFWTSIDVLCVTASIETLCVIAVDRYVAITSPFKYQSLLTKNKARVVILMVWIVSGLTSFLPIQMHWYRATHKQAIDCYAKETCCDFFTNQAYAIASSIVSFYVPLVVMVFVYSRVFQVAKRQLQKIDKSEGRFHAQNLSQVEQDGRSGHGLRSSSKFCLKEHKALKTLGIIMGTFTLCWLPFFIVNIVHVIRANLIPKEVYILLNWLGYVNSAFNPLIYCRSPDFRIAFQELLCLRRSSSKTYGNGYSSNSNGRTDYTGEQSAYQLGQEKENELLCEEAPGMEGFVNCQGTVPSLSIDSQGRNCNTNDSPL
Protocol: 3) Measurement of β2-adrenoceptor Stimulation
The uterus of pregnant SD rat (Day 21 of gestation) was isolated and longitudinal muscle strip, which was avoided placenta attached part, about 15 mm in length and 5 mm in width was taken and the experiment was conducted according to a Magnus method. The preparation was suspended in a Locke-Ringer solution maintained at 37° C. and gassed with a mixed gas of 95% O2 and 5% CO2 and stretched at a tension of 0.5 g. Spontaneous contraction of uterus was outputted through an isometric force transducer and recorded on an oscillograph through a tachometer. The test compound was added cumulatively into a Magnus bath by every 5 minutes. Potencies were evaluated that the sum of uterine contraction for 5 minutes before the addition of test compounds was taken as a 100%, and compared with the sum of uterine contraction for 5 minutes after the addition of each concentration of test compounds. […] (R)-3′-[[2-[[2-(3-chlorophenyl)-2-hydroxyethyl]-aminoethoxy]-[1,1′-biphenyl]-3-carboxylic acid which was described in example 17 on WO99/65877 was also examined as a comparison example.

[7] = Transport study using human intestinal epithelium tissue (Caco-2); format: in vitro ADME; settings: inside (pH 6.0) to outside (pH 7.4), 37° C., read-out: permeability coefficient Caco-2 Papp
Protocol: 1) Preparation of Culture Medium.
Dulbecco's modified Eagle's medium (Invitrogen Life Technologies) containing 1% fetal bovine serum (Sanko Jyunyaku), 1% MEM-nonessential amino acids, […] L-glutamine (Invitrogen Life Technologies), 1% penicillin—streptomycin 10000 units/mL-10000 μg/mL (Invitrogen Life Technologies) was prepared and used as a culture medium.
Caco-2 cells (American Type Culture Collection) were subcultured in a culture flask containing the culture medium.
After removing the culture medium before the cell reaches confluent, Caco-2 cells were washed with Hank's balanced salt solution Ca, Mg Free (Invitrogen Life Technologies).
The culture medium in the inside and outside compartments of the Traswell chamber was removed and replaced by a buffer solution containing 10 mM MES (pH 6.0) or 10 mM HEPES (pH7.4). The medium volume in the inside and outside compartments of the chamber was made at 0.1 mL (pH 6.0) and 0.5 mL (pH 7.4), respectively. The medium of the inside compartment was replaced by a buffer solution (pH 6.0) containing test compounds. For evaluating the transport of the test compounds from the inside compartment to the outside compartment, 100 μL of the outside buffer was sampled after incubating at 37° C. for 1 hr.
The apparent permeability coefficient was calculated as the following equation. The amounts of the test compounds in the outside buffer sampled were divided by incubation time. In addition, the amounts of penetration per incubation time (second) were divided by the concentration of the added test compound and the membrane surface.
[formula] • Papp is apparent permeability coefficient. (×10^−6 cm/sec) • dQ/dt is amount of penetration per incubation time. • Co is the initial concentration. (100 μM) • A is the membrane surface area. (0.33 cm^2) • The concentrations of test compounds were determined using LC/MS/MS.

SMILES	β2 receptor I.A. [1]	EC50 [2]	β3 receptor I.A. [3]	EC50 [3]	EC50 ([4]; CHO cells expressing human β1-adrenoceptor, cAMP, 50% of isoproterenol maximum, read-out: β1 receptor EC50)	β1 receptor I.A. [4]	EC50 [5]	EC50 [6]	Papp at 1 h, 100 μM [7]	Emax ([4]; CHO, read-out: β1 receptor EC50)	EC50 ([4]; read-out: β1 receptor EC50)
O=C(O)c1cccc(-c2cccc(OCCNC[C@H](O)c3cccc(Cl)c3)c2)c1 [Comparison, reference compound]	15%	1880 nM	41%	> 10000 nM	740 nM	60%	> 1000 nM	> 10000 nM			
Cc1cc(C(=O)O)ccc1-c1cc(C)c(OCCN[C@@H](C)[C@H](O)c2ccc(O)cc2)c(C)c1 [Compound 3, 4′-{2-[(1S,2R)-2-Hydroxy-2-(4-hydroxyphenyl)-1-methylethyl-amino]ethoxy}-2,3′,5′-trimethylbiphenyl-4-carboxylic acid]									19.9 ×10⁻⁶ cm/s		
Cc1cc(-c2ccc(C(=O)O)c(C(C)C)c2)cc(C)c1OCCN[C@@H](C)[C@H](O)c1ccc(O)cc1 [Compound 4, 4′-{2-[(1S,2R)-2-Hydroxy-2-(4-hydroxyphenyl)-1-methylethyl-amino]ethoxy}-3-isopropyl-3′,5′-dimethylbiphenyl-4-carboxylic acid]	27%		94%	240 nM		45%			15.7 ×10⁻⁶ cm/s	< 50%	
CCCc1cc(C(=O)O)ccc1-c1cc(C)c(OCCN[C@@H](C)[C@H](O)c2ccc(O)cc2)c(C)c1 [Compound 26]	49%		125%	57 nM		74%	11.2 nM				2280 nM
CCc1cc(C(=O)O)ccc1-c1ccc(OCCN[C@@H](C)[C@H](O)c2ccc(O)cc2)cc1 [Compound 153, 2-Ethyl-4′-{(1S,2R)-2-[2-hydroxy-2-(4-hydroxyphenyl)-1-methylethylamino]ethoxy}biphenyl-4-carboxylic acid]	28%	> 10000 nM	97%	480 nM		57%		2680 nM			4320 nM
CC(C)c1cc(C(=O)O)ccc1-c1ccc(OCCN[C@@H](C)[C@H](O)c2ccc(O)cc2)cc1 [Compound 156]	27%	> 10000 nM	239%	25 nM		87%	19.5 nM	5870 nM	3.4 ×10⁻⁶ cm/s		18900 nM
CCCc1cc(C(=O)O)ccc1-c1ccc(OCCN[C@@H](C)[C@H](O)c2ccc(O)cc2)cc1 [Compound 160]	32%		91%	200 nM		62%			4 ×10⁻⁶ cm/s		790 nM
CC(C)NCC(O)c1ccc(O)c(O)c1 (centres unmarked) [Isoproterenol, reference compound]			100%								
